“And” between values parts separate entries of the source, which are not always exact repeats. Identical values can stand only once. Like-named read-outs stand apart in the source and are kept apart here.
How the values were obtained:
[1] = target: T1, chymotrypsin-like activity of the purified rabbit 20S proteasome (Oryctolagus cuniculus, UniProt G1T4Q9); assay: 20S proteasome inhibition assay, fluorogenic substrate Suc-Leu-Leu-Val-Tyr-AMC; type: biochemical; conditions: for proteasome inhibitory activity, SAR statement in words: chymotrypsin-like activity, compared with lead or analogue;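 for all read-outs here: enzyme and 20 µM substrate incubated 1 h at 37 °C in Tris-HCl buffer pH 7.6, fluorogenic read-out, inhibition calculated against vehicle control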
T1 sequence (G1T4Q9 1-263): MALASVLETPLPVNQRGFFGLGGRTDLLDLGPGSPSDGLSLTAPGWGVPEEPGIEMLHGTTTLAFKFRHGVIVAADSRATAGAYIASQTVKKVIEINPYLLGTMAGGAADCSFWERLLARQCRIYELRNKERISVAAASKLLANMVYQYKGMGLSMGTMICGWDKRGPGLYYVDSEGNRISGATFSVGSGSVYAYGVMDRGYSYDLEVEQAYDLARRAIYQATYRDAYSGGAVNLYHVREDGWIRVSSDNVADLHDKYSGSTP
Protocol: 20S Proteasome Inhibition Assay
In our work, we used chymotrypsin-like substrate Suc-Leu-Leu-Val-Tyr-AMC to test the proteasome inhibition activity of the synthesized compounds.
The assay was conducted by using a fluorogenic peptide as substrate to test synthesized compounds for inhibitory activity against the chymotrypsin-like activity of the purified rabbit 20S proteasome. Briefly, 70 ng of purified 20S proteasome was incubated with 20 μM Suc-Leu-Leu-Val-Tyr-AMC for 1 hour at 37° C. in 100 μl of assay buffer (50 mM Tris-HCl, pH 7.6) with or without inhibitors. […] The inhibitory activity of the compounds was calculated based on vehicle control.

CT-L = target: T2, CT-L (Homo sapiens, UniProt P28074); assay: Inhibition of CT-L in cell culture; type: cell-based
T2 construct: endogenous in cells
T2 sequence (P28074 60-263): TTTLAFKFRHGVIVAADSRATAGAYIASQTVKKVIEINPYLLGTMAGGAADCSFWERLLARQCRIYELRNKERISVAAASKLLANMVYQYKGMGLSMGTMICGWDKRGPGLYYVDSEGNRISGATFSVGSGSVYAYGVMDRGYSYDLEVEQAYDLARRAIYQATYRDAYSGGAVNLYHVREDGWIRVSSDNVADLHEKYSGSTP

[2] = system: human tumor cell lines (breast, pancreatic and ovarian); assay: Selective inhibition of human tumor cell lines over normal cells; type: cell-based; conditions: three human tumor cell lines (breast, pancreatic, ovarian) over normal cells
[3] = individual determinations (runs M-1096, M-1098, M-1099, AK or dated), read-out: Chymotrypsin-like Activity IC50
[4] = read-out: IC50 (μM)* In Cell culture against CT-L
[5] = mean of the individual determinations, read-out: Chymotrypsin-like Activity IC50 (μM), mean ± spread (n)
[6] = 30 μM, runs M-1096, M-1098, M-1099

SMILES	proteasome inhibitory activity, SAR statement in words [1]	IC50 [1, 3]	IC50 (CT-L; [4])	IC50 [1, 5] [µM]	melting point	also measured
Cn1nnnc1Sc1cc(NS(=O)(=O)c2cccs2)c2ccccc2c1O [YG1-159-1, N-(4-hydroxy-3-(1-methyl-1H-tetrazol-5-ylthio)naphthalen-1-yl)thiophene-2-sulfonamide]	comparable inhibition potency	2.11 µM and 6.45 µM and 6.6 µM and 6.55 µM and 1.54 µM and 2.18 µM	6.4 µM			
O=C(O)CSc1cc(NS(=O)(=O)c2ccc(Cl)s2)c2ccccc2c1O [YG1-153, 2-(4-(5-chlorothiophene-2-sulfonamido)-1-hydroxynaphthalen-2-ylthio)acetic acid]		0.73 µM and 2.42 µM and 2.7 µM and 2.3 µM and 2.2 µM	8 µM and 10 µM	2.07		
O=C(O)CSc1cc(NS(=O)(=O)c2ccc(-c3ccccc3)cc2)c2ccccc2c1O [YG1-152, 2-(4-(biphenyl-4-ylsulfonamido)-1-hydroxynaphthalen-2-ylthio)acetic acid]		0.81 µM and 2.48 µM and 2.28 µM and 1.74 µM and 2.2 µM	> 100 µM and 83 µM			IC50 ([1]; value quoted in running text / FIG. 11, read-out: IC50 against chymotrypsin-like proteasome activity): 1.9 µM
O=C(O)CSc1cc(NS(=O)(=O)c2cc(Cl)c(Cl)s2)c2ccccc2c1O [HL4-098-2, 2-(4-(4,5-dichlorothiophene-2-sulfonamido)-1-hydroxynaphthalen-2-ylthio)acetic acid]		1.05 µM and 2.4 µM and 2.67 µM	25 µM and 17.4 µM			
O=C1C(Cl)=C(Nc2ccc(S(=O)(=O)Nc3ccccn3)cc2)C(=O)c2ccccc21 [PI-083, reference compound]		2.1 µM and 1.4 µM and 2.5 µM and 0.9 µM	4.3 µM and 3.7 µM	1.73		selective inhibition of tumor cell lines over normal cells [2]: selective inhibition; Chymotrypsin-like Activity Inhibition at 30 μM [1, 6]: 86% and 83%; inhibition at 30 µM [1, 6]: 87%
O=C(O)CSC1=CC(=NS(=O)(=O)c2cccs2)c2ccccc2C1=O (stereo in doubt) [YG2-176, (Z)-2-(1-oxo-4-(thiophen-2-ylsulfonylimino)-1,4-dihydronaphthalen-2-ylthio)acetic acid]	comparable inhibitory potency	2.28 µM and 2.12 µM and 2.4 µM	8.9 µM and 6.9 µM	2.27		
O=C(O)CSc1cc(NS(=O)(=O)c2cccs2)c2ccccc2c1O [HLM008182, 2-(1-hydroxy-4-(thiophene-2-sulfonamido)naphthalen-2-ylthio)acetic acid]	comparable proteasome inhibition activity		8.9 µM	2.2		IC50 ([1]; sample kept r.t. 2 weeks in DMSO, read-out: Chymotrypsin-like Activity IC50 (μM), r.t. 2 weeks in DMSO (converted)): 2.76 µM and 1.64 µM; IC50 (CT-L; listed as YG1-066, read-out: IC50 (μM)* In Cell culture against CT-L): 7.3 µM
O=C(O)c1ccccc1Sc1cc(NS(=O)(=O)c2cccs2)c2ccccc2c1O [YG1-155, 2-(1-hydroxy-4-(thiophene-2-sulfonamido)naphthalen-2-ylthio)benzoic acid]		1.12 µM and 4.6 µM and 5.32 µM and 7.7 µM and 7.1 µM and 1.04 µM and 1.5 µM		4.05	215 °C (dec.)	
CC(C)(C)OC(=O)COC1=CC(=O)c2ccccc2C1=O [YL2-013, tert-Butyl 2-(1,4-dioxo-1,4-dihydronaphthalen-2-yloxy)acetate]		> 10 µM			120 to 122 °C	
O=S(=O)(Nc1cc(I)c(O)c2ccccc12)c1cccs1 [YG1-033, N-(3-iodo-4-hydroxynaphthalen-1-yl)thiophene-2-sulfonamide]		26 µM and > 100 µM and 28 µM			134 to 136 °C	
O=S(=O)(Nc1cc(Sc2ncn[nH]2)c(O)c2ccccc12)c1cccs1 [YG1-159-2, N-(3-(1H-1,2,4-triazol-5-ylthio)-4-hydroxynaphthalen-1-yl)thiophene-2-sulfonamide]	comparable inhibition potency	1.4 µM and 6.55 µM and 7.4 µM and 5.6 µM and 6.6 µM and 0.85 µM and 1.12 µM	4.8 µM and 5.1 µM	4.22		
O=C(O)c1ccccc1Sc1cc(NS(=O)(=O)c2ccc(-c3ccccc3)cc2)c2ccccc2c1O [YG1-168, 2-(4-(biphenyl-4-ylsulfonamido)-1-hydroxynaphthalen-2-ylthio)benzoic acid]		2.32 µM and 2.44 µM and 1.84 µM			205 °C (dec.)	

From patent US8466157B2, “Proteasome inhibitors having chymotrypsin-like activity” (University of South Florida, priority 2009, dated 2013)
